Data: patent US3957779A, “Benzo-1,2,4-triazines” (Bayer Aktiengesellschaft, priority 1972, dated 1976)
≈ marks a conversion by molar mass, not a printed value.

Columns and labels:
[1] = tested on: Escherichia coli A261; experiment: MIC, plate test (Table 1); type: cell-based; conditions: 37°C, 24 hours, read-out: Minimum inhibitory concentration (MIC)
Experimental: (§1) The minimum inhibitory concentration (MIC) was determined in the plate test on a complete nutrient base of the following composition: 10 g of proteose-peptone, 10 g of veal infusion, 2 g of dextrose, 3 g of sodium chloride, 2 g of disodium phosphate, 1 g of sodium acetate, 0.01 g of adenine sulphate, 0.01 g of guanine hydrochloride, 0.01 g of uracil, 0.01 g. of xantin, 12 g of agar-agar and 1 liter of water.
(§2) The incubation temperature was 37°C and the incubation time was 24 hours.

[2] = tested on: Escherichia coli C165; experiment: MIC, plate test (Table 1); type: cell-based; conditions: 37°C, 24 hours, read-out: Minimum inhibitory concentration (MIC)
Experimental: as §1, §2

[3] = tested on: Klebsiella 63; experiment: MIC, plate test (Table 1); type: cell-based; conditions: 37°C, 24 hours, read-out: Minimum inhibitory concentration (MIC)
Experimental: as §1, §2

[4] = tested on: Klebsiella 8085; experiment: MIC, plate test (Table 1); type: cell-based; conditions: 37°C, 24 hours, read-out: Minimum inhibitory concentration (MIC)
Experimental: as §1, §2

[5] = tested on: Proteus vulgaris 1017; experiment: MIC, plate test (Table 1); type: cell-based; conditions: 37°C, 24 hours, read-out: Minimum inhibitory concentration (MIC)
Experimental: as §1, §2

[6] = tested on: Pseudomonas aeruginosa B; experiment: MIC, plate test (Table 1); type: cell-based; conditions: 37°C, 24 hours, read-out: Minimum inhibitory concentration (MIC)
Experimental: as §1, §2

[7] = tested on: Pseudomonas aeruginosa w; experiment: MIC, plate test (Table 1); type: cell-based; conditions: 37°C, 24 hours, read-out: Minimum inhibitory concentration (MIC)
Experimental: as §1, §2

[8] = tested on: Salmonella species; experiment: MIC, plate test (Table 1); type: cell-based; conditions: 37°C, 24 hours, read-out: Minimum inhibitory concentration (MIC)
Experimental: as §1, §2

[9] = tested on: Staphylococcus aureus 133; experiment: MIC, plate test (Table 1); type: cell-based; conditions: 37°C, 24 hours, read-out: Minimum inhibitory concentration (MIC)
Experimental: as §1, §2

[10] = tested on: Streptococcus pyogenes; experiment: MIC, plate test (Table 1); type: cell-based; conditions: with serum, 37°C, 24 hours, read-out: Minimum inhibitory concentration (MIC)
Experimental: as §1, §2

[11] = tested on: Mycoplasma bovirhinis; experiment: MIC, series dilution test, PPLO-medium (Table 1); type: cell-based; conditions: 37°C, 18, 24 and 48 hours, read-out: Minimum inhibitory concentration (MIC)
Experimental: (§3) The mycoplasmae were tested in the series dilution test (PPLO-medium) at 37°C, with observations after 18, 24 and 48 hours.

[12] = tested on: Mycoplasma gallisepticum; experiment: MIC, series dilution test, PPLO-medium (Table 1); type: cell-based; conditions: Mycoplasmoides gallisepticum, 37°C, 18, 24 and 48 hours, read-out: Minimum inhibitory concentration (MIC)
Experimental: as §3

[13] = tested on: Mycoplasma granularum; experiment: MIC, series dilution test, PPLO-medium (Table 1); type: cell-based; conditions: Acholeplasma granularum, 37°C, 18, 24 and 48 hours, read-out: Minimum inhibitory concentration (MIC)
Experimental: as §3

[14] = tested on: Mycobacterium tuberculosis; experiment: MIC, series dilution test, Jenssen egg medium; type: cell-based; conditions: 37°C, read-out: minimum inhibitory concentration
Experimental: The compounds of Examples 12 and 13 show minimum inhibitory concentrations of 32 γ/ml of nutrient medium in the series dilution test, Jenssen egg medium, 37°C, against Mycobacterium tuberculosis.

[15] = tested on: Klebsiella 8085; experiment: In vivo ED50, intraperitoneal infection of white mice (Table 2); conditions: sc; Klebsiella 8085 i.p. infection; s.c. 15 minutes before infection; 50% survival at 24 hours
[16] = tested on: Escherichia coli C165; experiment: as above; conditions: sc; Escherichia coli C165 i.p. infection; s.c. 15 minutes before infection; 50% survival at 24 hours
[17] = tested on: Escherichia coli A 261; experiment: Turbidity test in Mueller-Hinton nutrient solution; type: cell-based; conditions: 100 γ/ml, 24 hours, 37°C
[18] = tested on: Escherichia coli 14; experiment: Turbidity test in Mueller-Hinton nutrient solution; type: cell-based; conditions: 100 γ/ml, 24 hours, 37°C
[19] = tested on: Escherichia coli C 165; experiment: Turbidity test in Mueller-Hinton nutrient solution; type: cell-based; conditions: 100 γ/ml, 24 hours, 37°C
[20] = tested on: Proteus vulgaris 1017; experiment: Turbidity test in Mueller-Hinton nutrient solution; type: cell-based; conditions: 100 γ/ml, 24 hours, 37°C
[21] = tested on: Klebsiella K 10; experiment: Turbidity test in Mueller-Hinton nutrient solution; type: cell-based; conditions: 100 γ/ml, 24 hours, 37°C
[22] = tested on: Klebsiella K 63; experiment: Turbidity test in Mueller-Hinton nutrient solution; type: cell-based; conditions: 100 γ/ml, 24 hours, 37°C
[23] = tested on: Salmonella species; experiment: Turbidity test in Mueller-Hinton nutrient solution; type: cell-based; conditions: 100 γ/ml, 24 hours, 37°C
Experimental: (§4) 100 γ/ml of the compounds according to the invention are dissolved in Mueller-Hinton nutrient solution, with addition of 0.1% of glucose. The nutrient solution contains […] microbes per ml. The mixture is incubated in glass test tubes for 24 hours at 37°C and after this time the degree of turbidity is determined.

[24] = tested on: Shigella species; experiment: Turbidity test in Mueller-Hinton nutrient solution; type: cell-based; conditions: 100 γ/ml, 24 hours, 37°C
Experimental: as §4

[25] = tested on: Enterobacter species; experiment: Turbidity test in Mueller-Hinton nutrient solution; type: cell-based; conditions: 100 γ/ml, 24 hours, 37°C
[26] = tested on: Neisseria catarrhalis species; experiment: Turbidity test in Mueller-Hinton nutrient solution; type: cell-based; conditions: 100 γ/ml, 24 hours, 37°C
[27] = tested on: Diplococcus pneumoniae species; experiment: Turbidity test in Mueller-Hinton nutrient solution; type: cell-based; conditions: 100 γ/ml, 24 hours, 37°C
[28] = tested on: Streptococcus pyogenes W; experiment: Turbidity test in Mueller-Hinton nutrient solution; type: cell-based; conditions: 100 γ/ml, 24 hours, 37°C
[29] = tested on: Enterococcus species; experiment: Turbidity test in Mueller-Hinton nutrient solution; type: cell-based; conditions: 100 γ/ml, 24 hours, 37°C
[30] = tested on: Lactobacillus species; experiment: Turbidity test in Mueller-Hinton nutrient solution; type: cell-based; conditions: 100 γ/ml, 24 hours, 37°C
[31] = tested on: Serratia species; experiment: Turbidity test in Mueller-Hinton nutrient solution; type: cell-based; conditions: 100 γ/ml, 24 hours, 37°C
[32] = tested on: Proteus indole-negative, species; experiment: Turbidity test in Mueller-Hinton nutrient solution; type: cell-based; conditions: 100 γ/ml, 24 hours, 37°C
[33] = tested on: Proteus indole-positive, species; experiment: Turbidity test in Mueller-Hinton nutrient solution; type: cell-based; conditions: 100 γ/ml, 24 hours, 37°C
[34] = tested on: Pasteurella pseudotuberculosis; type: cell-based; conditions: 100 γ/ml, 24 hours, 37°C
[35] = tested on: Brucella species; type: cell-based; conditions: 100 γ/ml, 24 hours, 37°C
[36] = tested on: Haemophilus influenzae 281; experiment: Turbidity test in Mueller-Hinton nutrient solution; type: cell-based; conditions: 100 γ/ml, 24 hours, 37°C
[37] = tested on: Bordetella bronchiseptica; experiment: Turbidity test in Mueller-Hinton nutrient solution; type: cell-based; conditions: 100 γ/ml, 24 hours, 37°C
[38] = tested on: Bacteroides species; experiment: Turbidity test in Mueller-Hinton nutrient solution; type: cell-based; conditions: 100 γ/ml, 24 hours, 37°C
[39] = tested on: Staphylococcus aureus 133; experiment: Turbidity test in Mueller-Hinton nutrient solution; type: cell-based; conditions: 100 γ/ml, 24 hours, 37°C
[40] = tested on: Pseudomonas aeruginosa w; experiment: Turbidity test in Mueller-Hinton nutrient solution; type: cell-based; conditions: 100 γ/ml, 24 hours, 37°C
[41] = tested on: Pseudomonas aeruginosa B; experiment: Turbidity test in Mueller-Hinton nutrient solution; type: cell-based; conditions: 100 γ/ml, 24 hours, 37°C
[42] = tested on: Aeromonas hydrophila species; experiment: Turbidity test in Mueller-Hinton nutrient solution; type: cell-based; conditions: 100 γ/ml, 24 hours, 37°C
[43] = tested on: Corynebacterium diphtheriae gravis; experiment: Turbidity test in Mueller-Hinton nutrient solution; type: cell-based; conditions: 100 γ/ml, 24 hours, 37°C
[44] = tested on: Corynebacterium pyogenes M; experiment: Turbidity test in Mueller-Hinton nutrient solution; type: cell-based; conditions: 100 γ/ml, 24 hours, 37°C
[45] = tested on: Clostridium botulinium; type: cell-based
[46] = tested on: Clostridium tetani; type: cell-based; conditions: 100 γ/ml, 24 hours, 37°C
[47] = tested on: Borrelia species; experiment: Turbidity test in Mueller-Hinton nutrient solution; type: cell-based; conditions: 100 γ/ml, 24 hours, 37°C

Question: What does the source list for `CNc1n[n+]([O-])c2ccccc2[n+]1[O-]` [Example 1, 3-(N-methylamino)-benzo-1,2,4-triazine-1,4-di-N-oxide]?
Answer: MIC [1]: 8 µg/mL (≈ 41.6 µM); MIC [2]: 8 µg/mL (≈ 41.6 µM); MIC [3]: 128 µg/mL (≈ 666 µM); MIC [4]: 8 µg/mL (≈ 41.6 µM); MIC [5]: 128 µg/mL (≈ 666 µM); MIC [6]: 8 µg/mL (≈ 41.6 µM); MIC [7]: 128 µg/mL (≈ 666 µM); MIC [8]: 8 to 16 µg/mL (≈ 41.6 to 83.3 µM); MIC [9]: 8 µg/mL (≈ 41.6 µM); MIC [10]: 128 µg/mL (≈ 666 µM); MIC [11]: 1 µg/mL (≈ 5.2 µM); MIC [12]: 1 µg/mL (≈ 5.2 µM); MIC [13]: 1 µg/mL (≈ 5.2 µM); MIC [14]: 32 µg/mL (≈ 167 µM); ED50 [15]: 25 mg/kg; ED50 [16]: 25 mg/kg

Question: Which ED50 [15] does the source give for `O=C(CCl)Nc1n[n+]([O-])c2ccccc2[n+]1[O-]` [Example 9, 3-(N-chloroacetylamino)-benzo-1,2,4-triazine-1,4-di-N-oxide] here?
Answer: Its ED50 is 25 mg/kg.

Question: With `NC(=O)Nc1n[n+]([O-])c2ccccc2[n+]1[O-]` [Example 13, 1,4-dioxo-benzo-1,2,4-triazin-3-yl-urea] as the molecule, how does the MIC [14] read?
Answer: The MIC was 32 µg/mL (≈ 145 µM).

Question: And the turbidity after incubation [17]?
Answer: Its turbidity after incubation is “remained free of turbidity”.

Question: What about the turbidity after incubation [18] of the same molecule?
Answer: The turbidity after incubation was “remained free of turbidity”.

Question: And the turbidity after incubation [19]?
Answer: Its turbidity after incubation is “remained free of turbidity”.

Question: What about the turbidity after incubation [20] of the same molecule?
Answer: The turbidity after incubation was “remained free of turbidity”.

Question: And the turbidity after incubation [21]?
Answer: The turbidity after incubation was “remained free of turbidity”.

Question: And the turbidity after incubation [22]?
Answer: The turbidity after incubation was “remained free of turbidity”.

Question: And the turbidity after incubation [23]?
Answer: The turbidity after incubation was “remained free of turbidity”.

Question: What about the turbidity after incubation [24] of the same molecule?
Answer: The turbidity after incubation was “remained free of turbidity”.

Question: What about the turbidity after incubation [25] of the same molecule?
Answer: The turbidity after incubation was “remained free of turbidity”.

Question: What about the turbidity after incubation [26] of the same molecule?
Answer: The turbidity after incubation was “remained free of turbidity”.

Question: And the turbidity after incubation [27]?
Answer: Its turbidity after incubation is “remained free of turbidity”.

Question: And the turbidity after incubation [28]?
Answer: The turbidity after incubation was “remained free of turbidity”.

Question: What about the turbidity after incubation [29] of the same molecule?
Answer: Its turbidity after incubation is “remained free of turbidity”.

Question: What about the turbidity after incubation [30] of the same molecule?
Answer: Its turbidity after incubation is “remained free of turbidity”.

Question: What about the turbidity after incubation [31] of the same molecule?
Answer: The turbidity after incubation was “remained free of turbidity”.

Question: What about the turbidity after incubation [32] of the same molecule?
Answer: Its turbidity after incubation is “remained free of turbidity”.

Question: What about the turbidity after incubation [33] of the same molecule?
Answer: The turbidity after incubation was “remained free of turbidity”.

Question: And the turbidity after incubation [34]?
Answer: Its turbidity after incubation is “remained free of turbidity”.

Question: And the turbidity after incubation [35]?
Answer: Its turbidity after incubation is “remained free of turbidity”.

Question: And the turbidity after incubation [36]?
Answer: Its turbidity after incubation is “remained free of turbidity”.

Question: What about the turbidity after incubation [37] of the same molecule?
Answer: Its turbidity after incubation is “remained free of turbidity”.

Question: What about the turbidity after incubation [38] of the same molecule?
Answer: Its turbidity after incubation is “remained free of turbidity”.

Question: And the turbidity after incubation [39]?
Answer: The turbidity after incubation was “remained free of turbidity”.

Question: And the turbidity after incubation [40]?
Answer: Its turbidity after incubation is “remained free of turbidity”.

Question: What about the turbidity after incubation [41] of the same molecule?
Answer: The turbidity after incubation was “remained free of turbidity”.

Question: And the turbidity after incubation [42]?
Answer: The turbidity after incubation was “remained free of turbidity”.

Question: What about the turbidity after incubation [43] of the same molecule?
Answer: Its turbidity after incubation is “remained free of turbidity”.

Question: And the turbidity after incubation [44]?
Answer: Its turbidity after incubation is “remained free of turbidity”.

Question: What about the turbidity after incubation [45] of the same molecule?
Answer: The turbidity after incubation was “remained free of turbidity”.

Question: And the turbidity after incubation [46]?
Answer: Its turbidity after incubation is “remained free of turbidity”.

Question: What about the turbidity after incubation [47] of the same molecule?
Answer: Its turbidity after incubation is “remained free of turbidity”.
